From US9090640B2, “Targeted delivery and prodrug designs for platinum-acridine anti-cancer compounds and methods thereof” (priority 2011, dated 2015)

Tests used:
PANC-1 (pancreatic) = experiment: Colorimetric cell proliferation assay in PANC-1; format: cell-based; settings: 72-h incubations performed in triplicate
OVCAR-3 (ovarian) = experiment: Colorimetric cell proliferation assay in OVCAR-3; format: cell-based; settings: 72-h incubations performed in triplicate
MCF-7 (ER + breast) = experiment: Colorimetric cell proliferation assay in MCF-7; format: cell-based; settings: 72-h incubations performed in triplicate
[1] = tested on: MDA-MB-231 (triple-negative breast); experiment: Colorimetric cell proliferation assay in MDA-MB-231; format: cell-based; settings: 72-h incubations performed in triplicate
NCI-H460 = experiment: Cytotoxicity (cell proliferation) assay in NCI-H460; format: cell-based, human
Procedure: Cytotoxicity Assay. Cytotoxicity studies were carried out according to a standard protocol (Guddneppanavar et al. 2006) using the Celltiter 96 Aqueous Non-Radioactive Cell Proliferation Assay kit (Promega, Madison, Wis.). Stock solutions of 11, 14a, and 14b were prepared in phosphate-buffered saline (PBS) and serially diluted with media prior to incubation with cancer cells. IC50 values were calculated from non-linear curve fits using a sigmoidal dose-response equation in GraphPad Prism (GraphPad Software, La Jolla, Calif.). […]
Cell Proliferation Assay. Cell viability was assessed using the CellTiter 96 Aqueous Non-Radioactive Cell Proliferation Assay (Promega, Madison. Wis., USA) as described previously. […] The absorbance of tetrazolium dye was measured at 490) nm using a plate reader. The fraction of viable cells was calculated as a percentage of untreated control and is reported as the mean±standard deviation for 3 incubations of each compound. IC50 values were calculated from non-linear curve fits using a sigmoidal dose-response equation in GraphPad Prism (GraphPad Software, La Jolla, Calif.) and are averages of two individual experiments performed in triplicate. […]

**Q.** What does the source list for `N.N.[Cl][Pt][Cl]` [cispiatin, cis-diamminedichloroplatinum]?
**A.** IC50 (PANC-1 (pancreatic)): 6.6 ± 0.7 µM; IC50 (OVCAR-3 (ovarian)): 3.3 ± 0.4 µM; IC50 (MCF-7 (ER + breast)): 12 ± 2 µM; IC50 [1]: 60 ± 7 µM; IC50 (NCI-H460; 72-h incubations performed in triplicate (Table II), read-out: IC50, NCI-H460 (NSCLC)): 1.2 ± 0.2 µM; Fold less potent than the compounds of the invention in H460 cells (NCI-H460; compared with 14a and 14b): at least 20 fold
